Measurements reported in ChEMBL document CHEMBL4382293, “Triazolopyrimidines and Imidazopyridines: Structure-Activity Relationships and in Vivo Efficacy for Trypanosomiasis” (ACS Med Chem Lett, 2019).

Key:
Format in all cases: ADME, organism-based
[1] = AUC in Swiss Webster mouse at 50 mg/kg, po administered as single dose via gavage by LC/MS analysis; conditions: in vivo
[2] = Ratio of drug level in brain to plasma in Swiss Webster mouse at 5 mg/kg, ip measured after 1 hr by LC/MS analysis; conditions: for Kp at 1 h: Swiss Webster, brain/plasma, read-out: BPR
[3] = Cmax in Swiss Webster mouse at 50 mg/kg, po administered as single dose via gavage by LC/MS analysis; parameters: dose 50 mg/kg, route oral; conditions: in vivo
[4] = Volume of distribution at steady state in Swiss Webster mouse at […], iv administered as single dose by LC/MS analysis; conditions: in vivo, read-out: Vdss
[5] = Oral bioavailability in Swiss Webster mouse at 50 mg/kg administered as single dose via gavage by LC/MS analysis; conditions: in vivo
[6] = Drug level in Swiss Webster mouse plasma at 5 mg/kg, ip measured after 1 hr by LC/MS analysis
[7] = Drug level in Swiss Webster mouse brain at 5 mg/kg, ip measured after 1 hr by LC/MS analysis; conditions: read-out: Drug uptake

For `O=C(Nc1ccc(F)c(-c2nc3cc(-c4ccccc4)cnc3[nH]2)c1)N1CCCC1`, the AUC [1] was 20.7 µM·h and the BPR ([2]; brain, 1 h) was 0.04.
Work on `O=C(Nc1ccc(F)c(-c2nc3ncc(-c4cccc(F)c4F)cc3[nH]2)c1)N1CCCC1` yielded a Cmax [3] of 1.83 µM and an AUC [1] of 10.8 µM·h.
For `O=C(Nc1ccc(F)c(-c2nc3ncc(-c4ccc(F)c(F)c4)cc3[nH]2)c1)N1CCCC1`, the Cmax [3] was 6.67 µM, the AUC [1] was 27.5 µM·h and the Kp at 1 h [2] was 0.02.
With `O=C(Nc1ccc(F)c(-c2nc3ncc(C(F)(F)F)cc3[nH]2)c1)N1CCCC1` the Cmax [3] was 1.08 µM, the AUC [1] was 1.24 µM·h and the Kp at 1 h [2] was 0.08.
With `O=C(Nc1ccc(F)c(-c2nc3ncc(-c4ccc(F)cc4F)cc3[nH]2)c1)N1CCCC1` the Cmax [3] was 9.5 µM, the AUC [1] was 35.7 µM·h and the Kp at 1 h [2] was 0.01.
Work on `O=C(Nc1ccc(F)c(-c2nc3ncc(-c4ccccn4)cn3n2)c1)N1CCC(F)(F)C1` yielded a Cmax [3] of 31.1 µM, an AUC [1] of 262 µM·h and a Vd [4] of 0.7 to 1.1 L/kg. The bioavailability [5] was 70% and the Kp at 1 h [2] was 0.02.
Compound `O=C(Nc1ccc(F)c(-c2nc3ncc(-c4cccc(F)c4)cc3[nH]2)c1)N1CCCC1` has a Cmax [3] of 7 µM and an AUC [1] of 35.8 µM·h.
With `O=C(Nc1ccc(F)c(-c2nc3ncc(-c4cncc(F)c4)cc3[nH]2)c1)N1CCCC1` the Cmax [3] was 1.07 µM and the AUC [1] was 3.7 µM·h.
In the case of `O=C(Nc1ccc(F)c(-c2nc3ncc(-c4ccccc4F)cc3[nH]2)c1)N1CCCC1`, the Cmax [3] is reported as 2.23 µM, the AUC [1] is reported as 11.6 µM·h and the Kp at 1 h [2] is reported as 0.02.
`O=C(Nc1ccc(F)c(-c2nc3ncc(-c4ccc(O)cc4)cc3[nH]2)c1)N1CCCC1` showed a Cmax [3] of 0.13 µM and an AUC [1] of 0.328 µM·h.
With `O=C(Nc1ccc(F)c(-c2nc3ncc(-c4ccc(F)cc4)cc3[nH]2)c1)N1CCCC1` the Cmax [3] was 6.27 µM, the AUC [1] was 24.3 µM·h and the Kp at 1 h [2] was 0.04.
With `Cc1nc(C)c(C(=O)Nc2ccc(F)c(-c3nc4ncc(-c5ccccc5Cl)cn4n3)c2)o1` the Cmax [3] was 39.3 µM, the AUC [1] was 667 µM·h and the Vd [4] was 0.7 to 1.1 L/kg. For the same compound, the bioavailability [5] was 70%, the Kp at 1 h [2] was 0.23 and the concentration at 1 h [6] was 8.8 µM. The concentration at 1 h [7] was 1.9 µM.
`O=C(Nc1ccc(F)c(-c2nc3ncc(-c4cccnc4F)cc3[nH]2)c1)N1CCCC1` gave a Cmax [3] of 25.6 µM and an AUC [1] of 73.5 µM·h.
In the case of `O=C(Nc1ccc(F)c(-c2nc3ncc(-c4cc(F)cc(F)c4)cc3[nH]2)c1)N1CCCC1`, the Cmax [3] is reported as 4.8 µM and the AUC [1] is reported as 21.5 µM·h.
In the case of `O=C(Nc1ccc(F)c(-c2nc3ncc(-c4cc(F)ccc4F)cc3[nH]2)c1)N1CCCC1`, the Cmax [3] is reported as 2.8 µM and the AUC [1] is reported as 12.8 µM·h.
For `Cc1nc(C)c(C(=O)Nc2ccc(F)c(-c3nc4ncc(-c5ccccn5)cn4n3)c2)o1`, the Cmax [3] was 54.4 µM, the AUC [1] was 765 µM·h and the Kp at 1 h [2] was 0.12.
